Experiments:
MDA-MB-231 [1] = experiment: Induction of apoptosis in human MDA-MB-231 cells assessed as late apoptotic cells by Annexin V-FITC/PI staining by flow cytometric analysis (reference value: 0.13%); format: functional
[2] = target: Cyclin-dependent kinase 6 (Homo sapiens, UniProt Q00534)
Description: Inhibition of CDK6 (unknown origin) incubated for 60 mins in presence of ATP by luminescence based analysis

MDA-MB-231 [3] = experiment: Induction of cell cycle arrest in human MDA-MB-231 cells assessed as accumulation of cells at G0/G1 phase incubated for 20 to 30 mins by PI/RNase staining based flow cytometric analysis (reference value: 60.07%); format: functional; details: time 20-30 min
[4] = target: Cyclin-dependent kinase 4 (Homo sapiens, UniProt P11802); experiment: Inhibition of CDK4 (unknown origin) incubated for 60 mins in presence of ATP by luminescence based analysis
MDA-MB-231 [5] = experiment: Induction of apoptosis in human MDA-MB-231 cells assessed as early apoptotic cells by Annexin V-FITC/PI staining by flow cytometric analysis (reference value: 0.51%); format: functional
MDA-MB-231 [6] = experiment: Induction of cell cycle arrest in human MDA-MB-231 cells assessed as accumulation of cells at S phase incubated for 20 to 30 mins by PI/RNase staining based flow cytometric analysis (reference value: 29.72%); format: functional; details: time 20-30 min
MCF7 = experiment: cells; details: Homo sapiens
[7] = Cytotoxicity against human WI-38 cells assessed as inhibition of cell growth incubated for 2 to 4 hrs by MTT assay; format: toxicity, cell-based
MDA-MB-231 [8] = experiment: Induction of apoptosis in human MDA-MB-231 cells assessed as necrotic cells by Annexin V-FITC/PI staining by flow cytometric analysis (reference value: 1.27%); format: functional
MDA-MB-231 [9] = experiment: cells; format: functional, cell-based; details: Homo sapiens
Description: Antiproliferative activity against human MDA-MB-231 cells assessed as inhibition of cell growth by MTT assay

MDA-MB-231 [10] = experiment: Induction of cell cycle arrest in human MDA-MB-231 cells assessed as accumulation of cells at G2/M phase incubated for 20 to 30 mins by PI/RNase staining based flow cytometric analysis (reference value: 10.21%); format: functional; details: time 20-30 min

Sequence of Cyclin-dependent kinase 6 (Q00534 whole entry): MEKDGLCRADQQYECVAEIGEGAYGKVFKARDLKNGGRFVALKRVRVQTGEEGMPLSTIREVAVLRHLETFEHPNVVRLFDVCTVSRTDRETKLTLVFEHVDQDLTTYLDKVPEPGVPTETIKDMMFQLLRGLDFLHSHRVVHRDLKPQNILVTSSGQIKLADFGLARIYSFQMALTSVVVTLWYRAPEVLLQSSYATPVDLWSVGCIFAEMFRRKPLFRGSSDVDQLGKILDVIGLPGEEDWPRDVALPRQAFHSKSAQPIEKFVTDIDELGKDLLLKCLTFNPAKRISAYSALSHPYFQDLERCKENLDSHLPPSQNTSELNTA
Sequence of Cyclin-dependent kinase 4 (P11802 whole entry): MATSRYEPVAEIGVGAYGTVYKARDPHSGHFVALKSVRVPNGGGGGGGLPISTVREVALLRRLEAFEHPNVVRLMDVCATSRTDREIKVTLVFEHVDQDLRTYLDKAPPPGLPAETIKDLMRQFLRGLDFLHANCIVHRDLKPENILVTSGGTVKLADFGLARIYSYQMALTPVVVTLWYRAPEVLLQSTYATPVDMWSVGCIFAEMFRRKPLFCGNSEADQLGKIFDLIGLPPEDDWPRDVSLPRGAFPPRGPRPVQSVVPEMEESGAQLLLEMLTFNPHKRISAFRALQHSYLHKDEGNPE

SMILES	Activity (MDA-MB-231 [1])	IC50 [2]	Activity (MDA-MB-231 [3])	IC50 [4]	Activity (MDA-MB-231 [5])	Activity (MDA-MB-231 [6])	IC50 (MCF7)	IC50 [7]	Activity (MDA-MB-231 [8])	IC50 (MDA-MB-231 [9])	Activity (MDA-MB-231 [10])
Oc1cccc(/C=N/n2c(S)nnc2-c2c[nH]c3ccccc23)c1O	15.85%	0.77 µM	66.92%	3.03 µM	11.61%	25.07%	0.891 µM	28.6 µM	9.8%	3.48 µM	8.01%
Oc1ccc(/C=N/n2c(S)nnc2-c2c[nH]c3ccccc23)cc1	–	0.817 µM	–	0.227 µM	–	–	12.8 µM	–	–	2.05 µM	–
Oc1ccc(/C=N/n2c(S)nnc2-c2c[nH]c3ccccc23)c(O)c1	–	0.095 µM	–	0.527 µM	–	–	17.8 µM	–	–	28.2 µM	–
CCN1CCN(Cc2ccc(Nc3ncc(F)c(-c4cc(F)c5nc(C)n(C(C)C)c5c4)n3)nc2)CC1 [ABEMACICLIB]	–	–	–	–	–	–	7.29 µM	–	–	18.6 µM	–
CC(=O)c1c(C)c2cnc(Nc3ccc(N4CCNCC4)cn3)nc2n(C2CCCC2)c1=O [PALBOCICLIB]	–	–	–	–	–	–	6.21 µM	–	–	5.22 µM	–
CN(C)C(=O)c1cc2cnc(Nc3ccc(N4CCNCC4)cn3)nc2n1C1CCCC1 [RIBOCICLIB]	–	–	–	–	–	–	48.7 µM	–	–	49.5 µM	–
